A short description of data set [1]: Solubility of DIM-P in buffers of different pH, assayed by HPLC. Type of data set: physicochemical. Here is the method:
(§1) Solubility measurements were assayed by HPLC. Five milligrams of DIM-C-pPhC6H5 (“DIM-P”) was suspended in 1 ml of different buffers having pH 2.0, 4.0, 5.0, 6.0, 7.0 and 8.0 in a centrifuge tubes. The tubes were placed at 37±0.1° C. and kept for shaking at 1500 rpm for 24 hours. The suspensions were centrifuged, and supernatant were filtered using 0.1 μm filters prior to HPLC analysis. Partition co-efficient of DIM-P was measured in an octanol-water system. Octanol and water were mixed in 1:1 concentration and 3 mg of DIM-P was added to 2 mL of mixture followed by vigorous shaking for 5 minutes. The mixture was separated by centrifugation and samples were collected and filtered through 0.1 μm filters prior to HPLC analysis.

Data set [2] can be described thus: Partition co-efficient in an octanol-water system. Format: physicochemical. The note with it: octanol-water 1:1. Here is the method:
as §1

Each structure is given as a SMILES string. Converted amounts (≈) assume the structure as drawn.

`c1ccc(-c2ccc(C(c3c[nH]c4ccccc34)c3c[nH]c4ccccc34)cc2)cc1` [DIM-P, DIM-C-pPhC6H5]: the solubility – broadly, the dissolved amount per volume that the medium holds – was “less than 1 μg/mL” in data set [1] (at any pH) and 0.18 ± 0.003 µg/mL (≈ 0.452 µM) in data set [1] (pH 2.0, 37°C, 24 hours shaking). Further, in data set [1] (pH 8.0, 37°C, 24 hours shaking), the Maximum solubility worked out at 0.73 ± 0.09 µg/mL. Also, in data set [1] (rank order by pH), the sequence of solubility entry was “pH 8.0>6.0>4.0>2.0”. Besides, the log p value in data set [2] stood at 6.97±0.12.

Values taken from patent US9968557B1, “Method of preparing modified multilayered microstructures with enhanced oral bioavailability” (Florida A&M University, priority 2011, dated 2018).
